Source: patent US20230143612A1 (Arbutus Biopharma Corporation, priority 2020, published 2023)

The compounds below were run against PD-L1 His protein / PD-1 Fc protein (Homo sapiens, UniProt Q9NZQ7) (assay: HTRF Assay (PD-1/PD-L1 interaction)). Conditions: PD-L1 His 6 nM, PD-1 Fc 6 nM.
Assay type: binding
Method in brief: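 Compounds tested from 20 μM down to 0.001 μM (3-fold) against 6 nM PD-L1 His and 6 nM PD-1 Fc, 15 min room temperature incubation. Detection after 1 h at room temperature with Tb cryptate anti-6HIS and XL665 anti-human IgG reagents (mixture at 0.35 nM and 6.7 nM), HTRF signal.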

Sequence of PD-L1 His protein / PD-1 Fc protein (Q9NZQ7 19-238 limits assumed): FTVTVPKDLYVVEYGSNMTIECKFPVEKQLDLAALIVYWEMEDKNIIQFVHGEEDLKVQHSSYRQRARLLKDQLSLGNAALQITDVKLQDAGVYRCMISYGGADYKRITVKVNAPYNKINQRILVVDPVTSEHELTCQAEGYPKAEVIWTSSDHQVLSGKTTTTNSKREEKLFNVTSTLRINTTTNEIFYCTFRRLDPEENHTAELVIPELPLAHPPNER

Row | SMILES | IC50
1 | COc1nc(-c2cccc(-c3cccc(-c4ccn5c(=O)c(CNC[C@@H](O)CC(=O)O)cnc5c4)c3Cl)c2Cl)ccc1CNC[C@@H]1CCC(=O)N1 [Example 126, (S)-4-(((8-(2,2′-Dichloro-3′-(6-methoxy-5-(((((S)-5-oxopyrrolidin-2-yl)methyl)amino)methyl)pyridin-2-yl)-[1,1′-biphenyl]-3-yl)-4-oxo-4H-pyrido[1,2-a]pyrimidin-3-yl)methyl)amino)-3-hydroxybutanoic acid] | 0.4 nM
2 | COc1nc(-c2cccc(-c3cccc(-c4ccn5cc(CNC[C@@H]6CCC(=O)N6)nc5c4)c3Cl)c2Cl)ccc1CNC[C@@H]1CCC(=O)N1 [Example 357, (5S)-5-[[[6-[2-Chloro-3-[2-chloro-3-[2-[[[(2S)-5-oxopyrrolidin-2-yl]methylamino]methyl]imidazo[1,2-a]pyridin-7-yl]phenyl]phenyl]-2-methoxy-3-pyridyl]methylamino]methyl]pyrrolidin-2-one] | 50 nM
3 | COc1nc(-c2cccc(-c3cccc(-c4ccc5nc(CNC[C@@H]6CCC(=O)N6)cc(=O)n5c4)c3Cl)c2Cl)ccc1CNC[C@@H]1CCC(=O)N1 [Example 212, 7-(2,2′-Dichloro-3′-(6-methoxy-5-(((((S)-5-oxopyrrolidin-2-yl)methyl)amino)methyl)pyridin-2-yl)-[1,1′-biphenyl]-3-yl)-2-(((((S)-5-oxopyrrolidin-2-yl)methyl)amino)methyl)-4H-pyrido[1,2-a]pyrimidin-4-one] | 0.1 nM
4 | COc1cc(-c2cccc(-c3cccc(-c4ccn5c(=O)c(CNC[C@@H]6CCC(=O)N6)cnc5c4)c3Cl)c2Cl)cnc1CNC[C@@H]1CCC(=O)N1 [Example 360, 8-(2,2′-Dichloro-3′-(5-methoxy-6-(((((S)-5-oxopyrrolidin-2-yl)-methyl)-amino)methyl)-pyridin-3-yl)-[1,1′-biphenyl]-3-yl)-3-(((((S)-5-oxopyrrolidin-2-yl)methyl)amino)methyl)-4H-pyrido[1,2-a]pyrimidin-4-one] | 0.7 nM
5 | COc1nc(-c2cccc(-c3cccc(-c4ccn5c(=O)c(CN[C@@H](C)C(N)=O)cnc5c4)c3Cl)c2Cl)ccc1CNC[C@@H]1CCC(=O)N1 [Example 260, (2S)-2-[[8-[2-Chloro-3-[2-chloro-3-[6-methoxy-5-[[[(2S)-5-oxopyrrolidin-2-yl]methylamino]methyl]-2-pyridyl]phenyl]phenyl]-4-oxo-pyrido[1,2-a]pyrimidin-3-yl]methylamino]propenamide] | 0.1 nM
6 | COc1nc(-c2cccc(-c3cccc(-c4ccn5c(=O)c(CN6C[C@@H](O)[C@H](O)C6)cnc5c4)c3Cl)c2Cl)ccc1CNC[C@@H]1CCC(=O)N1 [Example 347, 8-(2,2′-Dichloro-3′-(6-methoxy-5-(((((S)-5-oxopyrrolidin-2-yl)methyl)amino)methyl)pyridin-2-yl)-[1,1′-biphenyl]-3-yl)-3-(((3R,4R)-3,4-dihydroxypyrrolidin-1-yl)methyl)-4H-pyrido[1,2-a]pyrimidin-4-one] | 530 nM
7 | COc1nc(-c2cccc(-c3cccc(-c4ccn5c(=O)c(CNC[C@@H]6CCC(=O)N6)cnc5c4)c3Cl)c2Cl)ccc1CNC[C@H](C)O [Example 197, 8-(2,2′-Dichloro-3′-(5-((((S)-2-hydroxypropyl)amino)methyl)-6-methoxypyridin-2-yl)-[1,1′-biphenyl]-3-yl)-3-(((((S)-5-oxopyrrolidin-2-yl)methyl)amino)methyl)-4H-pyrido[1,2-a]pyrimidin-4-one] | 0.2 nM
8 | COc1nc(-c2cccc(-c3cccc(-c4ncc5c(CNC[C@@H]6CCC(=O)N6)cn(C)c5n4)c3Cl)c2Cl)ccc1CNC[C@@H]1CCC(=O)N1 [Example 401, (S)-5-((((2-(2,2′-Dichloro-3′-(6-methoxy-5-(((((S)-5-oxopyrrolidin-2-yl)methyl)amino)methyl)pyridin-2-yl)-[1,1′-biphenyl]-3-yl)-7-methyl-7H-pyrrolo[2,3-d]pyrimidin-5-yl)methyl)amino)methyl)pyrrolidin-2-one] | 0.1 nM
9 | COc1cc(Cl)c(CNC[C@H]2CCC(=O)N2)c(-c2cccc(-c3cccc(-c4ccn5c(=O)c(CNC[C@@H]6CCC(=O)N6)cnc5c4)c3Cl)c2Cl)n1 [Example 337, 8-[2-chloro-3-[2-chloro-3-[4-chloro-6-methoxy-3-[[[(2R)-5-oxopyrrolidin-2-yl]methylamino]methyl]-2-pyridyl]phenyl]phenyl]-3-[[[(2S)-5-oxopyrrolidin-2-yl]methylamino]methyl]pyrido[1,2-a]pyrimidin-4-one] | 47 nM
10 | COc1nc(-c2cccc(-c3cccc(-c4cc(C)c5nc(CNC[C@@H]6CCC(=O)N6)cc(=O)n5c4)c3Cl)c2Cl)ccc1CNC[C@@H]1CCC(=O)N1 [Example 288, 7-(2,2′-Dichloro-3′-(6-methoxy-5-(((((S)-5-oxopyrrolidin-2-yl)methyl)amino)methyl)pyridin-2-yl)-[1,1′-biphenyl]-3-yl)-9-methyl-2-(((((S)-5-oxopyrrolidin-2-yl)methyl)amino)methyl)-4H-pyrido[1,2-a]pyrimidin-4-one] | 56 nM
11 | COc1nc(-c2cccc(-c3cccc(-c4ccn5c(=O)c(CNC[C@@H]6CCC(=O)N6)ccc5c4)c3Cl)c2Cl)ccc1CNC[C@@H]1CCC(=O)N1 [Example 85, 8-(2,2′-Dichloro-3′-(6-methoxy-5-(((((S)-5-oxopyrrolidin-2-yl)methyl)amino)methyl)pyridin-2-yl)-[1,1′-biphenyl]-3-yl)-3-(((((S)-5-oxopyrrolidin-2-yl)methyl)amino)methyl)-4H-quinolizin-4-one] | 2.5 nM
12 | COc1nc(-c2cccc(-c3cccc(-c4cc5c(=O)n(C)c(CN6CC(C)(C#N)C6)nn5c4)c3Cl)c2Cl)ccc1CNC[C@@H]1CCC(=O)N1 [Example 470, 1-[[6-[2-chloro-3-[2-chloro-3-[6-methoxy-5-[[[(2S)-5-oxopyrrolidin-2-yl]methylamino]methyl]-2-pyridyl]phenyl]phenyl]-3-methyl-4-oxo-pyrrolo[2,1-f][1,2,4]triazin-2-yl]methyl]-3-methyl-azetidine-3-carbonitrile] | 37 nM
13 | COc1nc(-c2cccc(-c3cccc(-c4ccc5c(n4)CCCC5NC[C@@H]4CCC(=O)N4)c3Cl)c2Cl)ccc1CNC[C@@H]1CCC(=O)N1 (mixture of isomers) [Example 235, (5S)-5-((((6-(2,2′-Dichloro-3′-(5-((((S)-5-oxopyrrolidin-2-yl)methyl)amino)-5,6,7,8-tetrahydroquinolin-2-yl)-[1,1′-biphenyl]-3-yl)-2-methoxypyridin-3-yl)methyl)amino)methyl)pyrrolidin-2-one] | 1 nM
14 | COc1nc(-c2cccc(-c3cccc(-c4ccc5c(CNC[C@@H]6CCC(=O)N6)cn(C)c5n4)c3Cl)c2Cl)ccc1CNC[C@@H]1CCC(=O)N1 [Example 388, (5S)-5-[[[6-[2-Chloro-3-[2-chloro-3-[1-methyl-3-[[[(2S)-5-oxopyrrolidin-2-yl]methylamino]methyl]pyrrolo[2,3-b]pyridin-6-yl]phenyl]phenyl]-2-methoxy-3-pyridyl]methylamino]methyl]pyrrolidin-2-one] | 610 nM
15 | COc1nc(-c2cccc(-c3cccc(-c4ccn5c(=O)c(CN6CC[C@H](C(=O)O)C6)cnc5c4)c3Cl)c2Cl)ccc1CN1CC(CO)C1 [Example 83, (S)-1-((8-(2,2′-Dichloro-3′-(5-((3-(hydroxymethyl)azetidin-1-yl)methyl)-6-methoxypyridin-2-yl)-[1,1′-biphenyl]-3-yl)-4-oxo-4H-pyrido[1,2-a]pyrimidin-3-yl)methyl)pyrrolidine-3-carboxylic acid] | 0.4 nM
16 | CNC(=O)[C@H](C)N(C)Cc1cnc2cc(-c3cccc(-c4cccc(-c5ccc(CNC[C@@H]6CCC(=O)N6)c(OC)n5)c4Cl)c3Cl)ccn2c1=O [Example 263, (S)-2-(((8-(2,2′-dichloro-3′-(6-methoxy-5-(((((S)-5-oxopyrrolidin-2-yl)methyl)amino)methyl)pyridin-2-yl)-[1,1′-biphenyl]-3-yl)-4-oxo-4H-pyrido[1,2-a]pyrimidin-3-yl)methyl)(methyl)amino)-N-methylpropanamide] | 0.6 nM
17 | Cc1c(/C=C(\F)c2ccc(CNCCO)cn2)cccc1-c1cccc(-c2ccn3c(=O)c(CNCCO)cnc3c2)c1C [Example 21, (Z)-8-(3′-(2-Fluoro-2-(5-(((2-hydroxyethyl)amino)methyl)pyridin-2-yl)vinyl)-2,2′-dimethyl-[1,1′-biphenyl]-3-yl)-3-(((2-hydroxyethyl)amino)methyl)-4H-pyrido[1,2-a]pyrimidin-4-one] | 4.8 nM
18 | Cc1c(COc2cc(OCc3cncc(C#N)c3)c(CNC[C@H]3CCC(=O)N3)cc2Cl)cccc1-c1cccc(-c2ccn3c(=O)c(CNC[C@H]4CCC(=O)N4)ccc3c2)c1C [Example 28, 5-((4-Chloro-5-((2,2′-dimethyl-3′-(4-oxo-3-(((((R)-5-oxopyrrolidin-2-yl)methyl)amino)methyl)-4H-quinolizin-8-yl)-[1,1′-biphenyl]-3-yl)methoxy)-2-(((((R)-5-oxopyrrolidin-2-yl)methyl)amino)methyl)phenoxy)methyl)nicotinonitrile] | 0.7 nM
19 | COc1nc(-c2cccc(-c3cccc(-c4ccc5nc(CNC[C@H](C)O)cc(=O)n5c4)c3Cl)c2Cl)ccc1CNC[C@@H]1CCC(=O)N1 [Example 324, 7-(2,2′-Dichloro-3′-(6-methoxy-5-(((((S)-5-oxopyrrolidin-2-yl)methyl)amino)methyl)pyridin-2-yl)-[1,1′-biphenyl]-3-yl)-2-((((S)-2-hydroxypropyl)amino)methyl)-4H-pyrido[1,2-a]pyrimidin-4-one] | 5.7 nM
20 | COc1nc(-c2cccc(-c3cccc(-c4nc5c(c(OC)n4)CN(C[C@@H]4CCC(=O)N4)CC5)c3Cl)c2Cl)ccc1CNC[C@@H]1CCC(=O)N1 [Example 471, (S)-5-((((6-(2,2′-Dichloro-3′-(4-methoxy-6-(((S)-5-oxopyrrolidin-2-yl)methyl)-5,6,7,8-tetrahydropyrido[4,3-d]pyrimidin-2-yl)-[1,1′-biphenyl]-3-yl)-2-methoxypyridin-3-yl)methyl)amino)methyl)pyrrolidin-2-one] | 0.1 nM
